Tests used:
[1] = system: SKOV3 estrogen-positive ovarian adenocarcinoma cells; assay: Amino acid uptake and inhibition in SKOV3 cells; type: cell-based, human; settings: SKOV3, 30 minutes incubation
U87 glioblastoma cells = assay: Amino acid uptake and inhibition in U87 cells; type: cell-based, human; settings: U87, 30 minutes incubation
[2] = system: DU145 androgen-independent prostate carcinoma cells; assay: Amino acid uptake and inhibition in DU145 cells; type: cell-based, human; settings: DU145, 30 minutes incubation
[3] = system: rat orthotopic brain tumor model; settings: rat orthotopic brain tumor model, 60 min; cited from earlier work
SKOV3 tumor xenograft = assay: Biodistribution in SKOV3 tumor-bearing SCID mice; type: in vivo; settings: listed as (S)-[^18F]FAMP 1
[4] = system: human A549, DU145, U87, MDA MB468 and SKOV3 tumor cells; assay: Amino acid uptake and inhibition, summary over the five tumor cell lines; type: cell-based
[5] = system: A549 lung adenocarcinoma cells; assay: Amino acid uptake and inhibition in A549 cells; type: cell-based, human; settings: A549, 30 minutes incubation
A549 tumor xenograft = assay: Biodistribution in A549 tumor-bearing SCID mice; type: in vivo; settings: listed as (S)-[^18F]FAMP 1
[6] = system: SCID mice xenograft tumor models; type: in vivo; settings: in most cases, over tumors and time points
[7] = system: MDA MB468 estrogen-independent breast carcinoma cells; assay: Amino acid uptake and inhibition in MDA MB468 cells; type: cell-based, human; settings: for Cell uptake: MDA MB468, 30 minutes incubation

CC(N)(C[18F])C(=O)O [(S)-[^18F]1] [2-amino-3-[^18F]fluoro-2-methylpropanoic acid]
Cell uptake ([1]; 10 mM BCH): 1.7±0.1 % ID/5×10^5 cells
Cell uptake ([1]; 10 mM MeAIB): 2.9±0.2 % ID/5×10^5 cells
Cell uptake ([1]; Control (no inhibitor)): 3.9±0.2 % ID/5×10^5 cells
Cell uptake (U87 glioblastoma cells; 10 mM BCH): 0.8±0.1 % ID/5×10^5 cells
Cell uptake (U87 glioblastoma cells; 10 mM MeAIB): 1.0±0.04 % ID/5×10^5 cells
Cell uptake (U87 glioblastoma cells; Control (no inhibitor)): 1.5±0.1 % ID/5×10^5 cells
Cell uptake ([2]; 10 mM BCH): 1.6±0.1 % ID/5×10^5 cells
Cell uptake ([2]; 10 mM MeAIB): 3.2±0.4 % ID/5×10^5 cells
Cell uptake ([2]; Control (no inhibitor)): 3.6±0.3 % ID/5×10^5 cells
brain uptake [3]: 0.06±0.01 %ID/g
uptake in blood (SKOV3 tumor xenograft; 15 min post injection): 3.5±0.8 %ID/g
uptake in bone (SKOV3 tumor xenograft; 15 min post injection): 2.2±0.7 %ID/g
uptake in brain (SKOV3 tumor xenograft; 15 min post injection): 0.4±0.1 %ID/g
uptake in heart (SKOV3 tumor xenograft; 15 min post injection): 2.8±0.8 %ID/g
uptake in kidney (SKOV3 tumor xenograft; 15 min post injection): 31±6.8 %ID/g
uptake in liver (SKOV3 tumor xenograft; 15 min post injection): 3.6±1.0 %ID/g
uptake in lung (SKOV3 tumor xenograft; 15 min post injection): 4.8±1.3 %ID/g
uptake in muscle (SKOV3 tumor xenograft; 15 min post injection): 2.8±0.9 %ID/g
uptake in pancreas (SKOV3 tumor xenograft; 15 min post injection): 44±15 %ID/g
uptake in spleen (SKOV3 tumor xenograft; 15 min post injection): 9.8±4.3 %ID/g
uptake in tumor (SKOV3 tumor xenograft; 15 min post injection): 6.2±4.1 %ID/g
uptake in blood (SKOV3 tumor xenograft; 30 min post injection): 3.1±0.7 %ID/g
uptake in bone (SKOV3 tumor xenograft; 30 min post injection): 2.2±0.4 %ID/g
uptake in brain (SKOV3 tumor xenograft; 30 min post injection): 0.5±0.1 %ID/g
uptake in heart (SKOV3 tumor xenograft; 30 min post injection): 2.8±0.5 %ID/g
uptake in kidney (SKOV3 tumor xenograft; 30 min post injection): 22±4.9 %ID/g
uptake in liver (SKOV3 tumor xenograft; 30 min post injection): 3.9±0.6 %ID/g
uptake in lung (SKOV3 tumor xenograft; 30 min post injection): 4.4±0.7 %ID/g
uptake in muscle (SKOV3 tumor xenograft; 30 min post injection): 2.8±0.5 %ID/g
uptake in pancreas (SKOV3 tumor xenograft; 30 min post injection): 40±13 %ID/g
uptake in spleen (SKOV3 tumor xenograft; 30 min post injection): 8.4±2.1 %ID/g
uptake in tumor (SKOV3 tumor xenograft; 30 min post injection): 7.3±3.0 %ID/g
uptake in blood (SKOV3 tumor xenograft; 60 min post injection): 2.1±0.6 %ID/g
uptake in bone (SKOV3 tumor xenograft; 60 min post injection): 1.7±0.6 %ID/g
uptake in brain (SKOV3 tumor xenograft; 60 min post injection): 0.6±0.2 %ID/g
uptake in heart (SKOV3 tumor xenograft; 60 min post injection): 2.6±0.7 %ID/g
uptake in kidney (SKOV3 tumor xenograft; 60 min post injection): 15±4.8 %ID/g
uptake in liver (SKOV3 tumor xenograft; 60 min post injection): 3.6±1.1 %ID/g
uptake in lung (SKOV3 tumor xenograft; 60 min post injection): 3.2±1.1 %ID/g
uptake in muscle (SKOV3 tumor xenograft; 60 min post injection): 2.2±0.7 %ID/g
uptake in pancreas (SKOV3 tumor xenograft; 60 min post injection): 36±8.6 %ID/g
uptake in spleen (SKOV3 tumor xenograft; 60 min post injection): 5.5±1.2 %ID/g
uptake in tumor (SKOV3 tumor xenograft; 60 min post injection): 6.2±3.1 %ID/g
uptake in bone (SKOV3 tumor xenograft; 120 min post injection): 1.6±1.1 %ID/g
uptake in brain (SKOV3 tumor xenograft; 120 min post injection): 0.7±0.3 %ID/g
uptake in heart (SKOV3 tumor xenograft; 120 min post injection): 2.6±1.4 %ID/g
uptake in kidney (SKOV3 tumor xenograft; 120 min post injection): 11±5.0 %ID/g
uptake in liver (SKOV3 tumor xenograft; 120 min post injection): 3.2±0.7 %ID/g
uptake in lung (SKOV3 tumor xenograft; 120 min post injection): 2.3±0.8 %ID/g
uptake in muscle (SKOV3 tumor xenograft; 120 min post injection): 1.7±0.9 %ID/g
uptake in pancreas (SKOV3 tumor xenograft; 120 min post injection): 22±3.6 %ID/g
uptake in spleen (SKOV3 tumor xenograft; 120 min post injection): 4.6±2.3 %ID/g
uptake in tumor (SKOV3 tumor xenograft; 120 min post injection): 5.1±1.6 %ID/g
inhibition of uptake by BCH ([4]; 10 mM BCH, relative to control, most cell lines): 36-68%
inhibition of uptake by MeAIB ([4]; 10 mM MeAIB, relative to control, most cell lines): 10-32%
uptake in tumor cells ([4]; 30 minutes incubation, without inhibitors, range over the cell lines): 2-5 %ID/5×10^5 cells
amino acid transport system mediating uptake / selectivity ([4]; AAT cell inhibition assays with MeAIB and BCH): mixed AATs, likely but not limited to system A and system L
Cell uptake ([5]; 10 mM BCH): 1.5±0.1 % ID/5×10^5 cells
Cell uptake ([5]; 10 mM MeAIB): 3.9±0.6 % ID/5×10^5 cells
Cell uptake ([5]; Control (no inhibitor)): 4.8±0.7 % ID/5×10^5 cells
uptake in blood (A549 tumor xenograft; 15 min post injection): 3.9±0.6 %ID/g
uptake in bone (A549 tumor xenograft; 15 min post injection): 2.6±0.8 %ID/g
uptake in brain (A549 tumor xenograft; 15 min post injection): 0.5±0.1 %ID/g
uptake in heart (A549 tumor xenograft; 15 min post injection): 3.2±0.7 %ID/g
uptake in kidney (A549 tumor xenograft; 15 min post injection): 29±5.7 %ID/g
uptake in liver (A549 tumor xenograft; 15 min post injection): 3.7±0.5 %ID/g
uptake in lung (A549 tumor xenograft; 15 min post injection): 5.5±2.0 %ID/g
uptake in muscle (A549 tumor xenograft; 15 min post injection): 3.3±0.7 %ID/g
uptake in pancreas (A549 tumor xenograft; 15 min post injection): 42±8.4 %ID/g
uptake in spleen (A549 tumor xenograft; 15 min post injection): 9.0±3.0 %ID/g
uptake in tumor (A549 tumor xenograft; 15 min post injection): 6.7±1.7 %ID/g
uptake in blood (A549 tumor xenograft; 30 min post injection): 3.1±0.6 %ID/g
uptake in bone (A549 tumor xenograft; 30 min post injection): 2.5±0.6 %ID/g
uptake in brain (A549 tumor xenograft; 30 min post injection): 0.6±0.1 %ID/g
uptake in heart (A549 tumor xenograft; 30 min post injection): 3.3±0.4 %ID/g
uptake in kidney (A549 tumor xenograft; 30 min post injection): 21±6.9 %ID/g
uptake in liver (A549 tumor xenograft; 30 min post injection): 3.8±0.6 %ID/g
uptake in lung (A549 tumor xenograft; 30 min post injection): 4.3±1.7 %ID/g
uptake in muscle (A549 tumor xenograft; 30 min post injection): 3.0±0.8 %ID/g
uptake in pancreas (A549 tumor xenograft; 30 min post injection): 39±8.2 %ID/g
uptake in spleen (A549 tumor xenograft; 30 min post injection): 8.4±1.7 %ID/g
uptake in tumor (A549 tumor xenograft; 30 min post injection): 7.9±1.0 %ID/g
uptake in blood (A549 tumor xenograft; 60 min post injection): 2.3±0.1 %ID/g
uptake in bone (A549 tumor xenograft; 60 min post injection): 2.7±0.6 %ID/g
uptake in brain (A549 tumor xenograft; 60 min post injection): 0.8±0.1 %ID/g
uptake in heart (A549 tumor xenograft; 60 min post injection): 3.0±0.4 %ID/g
uptake in kidney (A549 tumor xenograft; 60 min post injection): 17±1.4 %ID/g
uptake in liver (A549 tumor xenograft; 60 min post injection): 3.5±0.4 %ID/g
uptake in lung (A549 tumor xenograft; 60 min post injection): 2.8±1.3 %ID/g
uptake in muscle (A549 tumor xenograft; 60 min post injection): 2.9±0.6 %ID/g
uptake in pancreas (A549 tumor xenograft; 60 min post injection): 33±6.1 %ID/g
uptake in spleen (A549 tumor xenograft; 60 min post injection): 6.5±1.1 %ID/g
uptake in tumor (A549 tumor xenograft; 60 min post injection): 8.3±1.0 %ID/g
uptake in blood (A549 tumor xenograft; 120 min post injection): 2.0±0.4 %ID/g
uptake in bone (A549 tumor xenograft; 120 min post injection): 2.0±0.5 %ID/g
uptake in brain (A549 tumor xenograft; 120 min post injection): 0.8±0.1 %ID/g
uptake in heart (A549 tumor xenograft; 120 min post injection): 2.7±0.8 %ID/g
uptake in kidney (A549 tumor xenograft; 120 min post injection): 14±1.8 %ID/g
uptake in liver (A549 tumor xenograft; 120 min post injection): 2.8±0.4 %ID/g
uptake in lung (A549 tumor xenograft; 120 min post injection): 3.1±0.9 %ID/g
uptake in muscle (A549 tumor xenograft; 120 min post injection): 2.3±0.4 %ID/g
uptake in pancreas (A549 tumor xenograft; 120 min post injection): 29±2.3 %ID/g
uptake in spleen (A549 tumor xenograft; 120 min post injection): 6.0±1.7 %ID/g
uptake in tumor (A549 tumor xenograft; 120 min post injection): 6.5±0.8 %ID/g
ratio of tumor to muscle [6]: above 2
Cell uptake ([7]; 10 mM BCH): 2.2±0.1 % ID/5×10^5 cells
Cell uptake ([7]; 10 mM MeAIB): 3.5±0.2 % ID/5×10^5 cells
Cell uptake ([7]; Control (no inhibitor)): 3.4±0.3 % ID/5×10^5 cells
inhibition of uptake by MeAIB ([7]; MDA MB468 cells, 10 mM MeAIB): no significant MeAIB inhibition
